# System: senescent preadipocytes (C12FDG^Hi) in eWAT of HFD mice
# Test: C12FDG flow cytometry assay (SA-βgal activity) on eWAT SVF of HFD mice
# Type: in vivo, mouse
# Procedure: MATERIALS AND METHODS. Mouse husbandry. All procedures involving mice were performed according to the IACUC standards following ethics approval by the animal committee at the University of California, San Francisco. Male C57BL6/J on chow or HFD fed mice. HFD mice were fed a high-fat diet (60% kcal from fat) from 6 weeks until 22 weeks of age. All experiments on HFD mice were performed at 22-24 weeks total age (16-18 weeks on HFD). Age-matched male C57BL6/J mice on standard rodent chow diet were used as controls. For the lung injury model, 10-week-old male C57BL/6J mice were used. The animals were divided into three groups: the control group, the injured group, and the α-GalCer treated group. The animals in the control group received vehicle only (i.p.) on day 10. The injured group animals received bleomycin (3 U/kg) via the intratracheal route at the start of the experiment (day 0). The animals in the α-GalCer treated groups received bleomycin (3 U/kg) on day 0, and i.p. injection of α-GalCer (2 μg/mouse) on day 10. The animals in all the groups were sacrificed on day 14, and lungs were harvested for isolation of primary pulmonary Alveolar Type II cells (ATII) on the same day. For the hydroxyproline assay, mice were euthanized 21 days after injury.
# Epidydmal white adipose tissue stromal vascular fraction (eWAT SVF) isolation. eWAT SVF was isolated using standard protocols. Briefly, mice were euthanized, and epididymal fat pads were harvested, washed twice in D-PBS and minced. eWAT pads were digested with 1 U/ml Collagenase-D (Roche) in 1×HBSS containing 1% BSA (Sigma-Aldrich) for 1 hr at 37° C. Digested fat tissue was then strained twice through 100 μm strainers and neutralized with 30 ml of complete culture media (DMEM-F12 1:1, 10% FBS, 1×Penicillin-streptomycin). Samples were spun at 500 g for 5 minutes, shaken to resuspend the SVF pellet and then spun again. The resulting SVF pellet containing blood cells was lysed with ACKS buffer, washed in D-PBS and spun down. Total live SVF cells were counted using trypan blue and then used for various assays.
# C12FDG flow cytometry assay. eWAT SVF cells isolated and counted as described above were adjusted to 3×10^6 cells/ml in complete culture media and incubated with 33 μM C12FDG for 1 hr in a 37° C. water bath. Cells were then spun down at 500 g for 5 minutes, washed with Cell Staining buffer, and stained with anti-CD45-APC (clone 30F-11) and anti-CD31-PE-Cy7 (clone 390) each at a 1:200 dilution on ice for 30 minutes. Cells were then washed in Cell Staining buffer and resuspended in Cell Staining buffer containing 1×7-AAD. Samples were analyzed on an Attune acoustic focusing cytometer. Gates were set as follows: cells (FSC-A/SSC-A), forward scatter singlets (FSC-H/FSC-A), side-scatter singlets (SSC-H/SSC-A), live cells (7-AAD^−), non-immune cells (CD45^−), non-endothelial cells (CD31^−) and analyzed for C12FDG fluorescence. […] Data were analyzed with FlowJo (v. 10). For Lung, 1×10^6 cells from each sample were used to perform the assay. The cells were incubated with 66 μm of C12FDG in sterile DMEM containing DNase for 1 hour at 37° C. Following the incubation, the cells were washed with cell staining buffer, blocked with anti CD16/32 mouse monoclonal antibody (1:1000, prepared by the UCSF monoclonal antibody core), and stained with APC anti-mouse CD45 (1:400), and 7-AAD (1:1000). The gating strategy followed selected 7-AAD^−, CD45^−, and C12FDG^+ cells. […]
structure (smiles),measurement,setting,value
"CCCCCCCCCCCCCCCCCCCCCCCCCC(=O)N[C@@H](CO[C@H]1O[C@H](CO)[C@H](O)[C@H](O)[C@H]1O)[C@H](O)[C@H](O)CCCCCCCCCCCCCC [GalCer, alpha-Galactosylceramide]","senescent cells (C12FDG+ SVF cells), Traj18^−/− HFD mice",HFD fed Traj18^−/− mice (lack invariant TCR chain) injected with GalCer,failed to reduce senescent cells in Traj18^−/− mice
same,"senescent cells (C12FDG+ SVF cells), WT HFD mice",HFD fed WT mice injected with GalCer,reduction of senescent cells in WT HFD mice
same,number of C12FDG^Hi preadipocytes in eWAT,"HFD mice injected with GalCer (2 μg i.p.) vs vehicle, FIG. 3A",deplete the number of these C12FDG^Hi cells to levels akin to those seen in lean control mice
